# Target: T1, human TREM2 (Homo sapiens, UniProt Q9NZC2)
# T1 construct: expressed in transfected cells; host or cells: HEK293T (HEK293T-hTREM2 cells)
# Assay: TREM2 agonist potency by cellular phosphorylation of Spleen Tyrosine Kinase (Syk), AlphaLisa, HEK293T-hTREM2 cells
# Assay type: cell-based
# Conditions: hTREM2 EC50 Data (HEK293 Cells); Syk phosphorylation, AlphaLisa; read-out: hTREM2 EC50
# Outline: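 HEK293T cells co-expressing human TREM2 and DAP12, plated 20–24 h before use. Compounds applied 45 min at room temperature in assay buffer, then cells lysed and phospho-Syk quantified by AlphaLisa. Percent activation from a standard curve; EC50 from a four-parameter variable-slope fit.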
# T1 sequence (Q9NZC2 19-230): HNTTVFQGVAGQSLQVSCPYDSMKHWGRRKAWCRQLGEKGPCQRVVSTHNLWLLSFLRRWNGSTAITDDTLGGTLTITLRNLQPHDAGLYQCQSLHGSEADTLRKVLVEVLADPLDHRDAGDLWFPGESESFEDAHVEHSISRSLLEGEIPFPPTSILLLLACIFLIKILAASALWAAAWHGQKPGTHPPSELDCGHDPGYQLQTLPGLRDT
# T1 sequence (O43914 22-113 partner): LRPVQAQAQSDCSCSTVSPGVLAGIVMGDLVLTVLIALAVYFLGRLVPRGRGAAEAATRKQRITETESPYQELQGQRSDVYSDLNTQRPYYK
row,SMILES,EC50
1,"Cc1nc2c(C34CC(C(F)(F)F)(C3)C4)nc([C@H]3CCO[C@@H](c4ccc(=O)n(C)c4)C3)nc2c(=O)n1C (racemic) [Example 217, 2,3-dimethyl-6-[rac-(2R,4S)-2-(1-methyl-6-oxo-3-pyridyl)tetrahydropyran-4-yl]-8-[3-(trifluoromethyl)-1-bicyclo[1.1.1]pentanyl]pyrimido[5,4-d]pyrimidin-4-one]",< 100 nM
2,Cc1noc(-c2cc3c(C45CC(C(F)(F)F)(C4)C5)nc([C@H]4CCO[C@@H](c5ccc(=O)n(C(F)F)c5)C4)nc3nc2C)n1 [Example 352],> 500 nM
3,"Cc1nc2nc([C@H]3CCO[C@H](c4ccc(=O)n(C)c4)C3)cc(C34CC(C(F)(F)F)(C3)C4)c2nc1C [Example 170, 1-methyl-5-[(2S,4S)-4-[2,3-dimethyl-8-[3-(trifluoromethyl)-1-bicyclo[1.1.1]pentanyl]pyrido[2,3-b]pyrazin-6-yl]tetrahydropyran-2-yl]pyridin-2-one]",100 to 500 nM
4,"Cc1nc2nc([C@H]3C[C@@H](C)O[C@@H](c4ccc(=O)n(C)c4)C3)nc(C34CC(C(F)(F)F)(C3)C4)c2nc1C [Example 56, 5-[(2R,4S,6R)-4-[6,7-dimethyl-4-[3-(trifluoromethyl)-1-bicyclo[1.1.1]-pentanyl]pteridin-2-yl]-6-methyl-tetrahydropyran-2-yl]-1-methyl-pyridin-2-one]",< 100 nM
5,"[2H]C([2H])([2H])c1nc2nc([C@H]3CCO[C@@H](c4ccc(=O)n(C5CC5)c4)C3)nc(C34CC(C(F)(F)F)(C3)C4)c2nc1C([2H])([2H])[2H] [Example 201, 5-((2R,4S)-4-(6,7-bis(methyl-d3)-4-(3-(trifluoromethyl)bicyclo[1.1.1]pentan-1-yl)pteridin-2-yl)tetrahydro-2H-pyran-2-yl)-1-cyclopropylpyridin-2 (1H)-one]",< 100 nM
6,"Cc1nc2nc([C@@H]3CCO[C@H](c4ccc(=O)n(C56CC(C5)C6)c4)C3)nc(C34CC(C(F)(F)F)(C3)C4)c2nc1C [Example 121, 1-(1-bicyclo[1.1.1]pentanyl)-5-[(2S,4R)-4-[6,7-dimethyl-4-[3-(trifluoromethyl)-1-bicyclo[1.1.1]-pentanyl]pteridin-2-yl]tetrahydropyran-2-yl]pyridine-2-one]",< 100 nM
7,"CCn1cc([C@H]2C[C@@H](c3nc(C45CC(C(F)(F)F)(C4)C5)c4nc(C)c(C)nc4n3)CCO2)ccc1=O [Example 80, 5-[(2R,4S)-4-[6,7-dimethyl-4-[3-(trifluoromethyl)-1-bicyclo[1.1.1]pentanyl]pteridin-2-yl]tetrahydropyran-2-yl]-1-ethyl-pyridin-2-one]",< 100 nM
8,"Cc1nc2nc([C@@H]3CCO[C@H](c4ccc(=O)n(C)c4)C3)nc(-c3ccc(F)cc3F)c2nc1C [Example 2, 5-[(2S,4R)-4-[4-(2,4-difluorophenyl)-6,7-dimethyl-pteridin-2-yl]tetrahydropyran-2-yl]-1-methyl-pyridin-2-one]",> 500 nM
9,Cc1nc2nc([C@H]3CCO[C@@H](c4ccc(=O)n(C(F)F)c4)C3)nc(C34CC(C(F)(F)F)(C3)C4)c2nc1C [Example 90],< 100 nM
10,"Cc1nc2nc([C@H]3CCO[C@@H](c4ccc(=O)n(CCO)c4)C3)nc(C34CC(C(F)(F)F)(C3)C4)c2nc1C [Example 84, 5-[(2R,4S)-4-[6,7-dimethyl-4-[3-(trifluoromethyl)-1-bicyclo[1.1.1]pentanyl]pteridin-2-yl]tetrahydropyran-2-yl]-1-(2-hydroxyethyl)pyridin-2-one]",< 100 nM
11,"Cc1nc2nc(N3C[C@@H](C)O[C@@H](c4ccc(=O)n(C)c4)C3)nc(-c3cnc(C(F)(F)F)s3)c2nc1C [Example 23, 5-[(2S,6R)-4-[6,7-dimethyl-4-[2-(trifluoromethyl)thiazol-5-yl]pteridin-2-yl]-6-methyl-morpholin-2-yl]-1-methyl-pyridin-2-one]",< 100 nM
12,"CNn1cc([C@H]2CN(c3nc(-c4ccc(F)cc4F)c4sc(N(C)C)nc4n3)C[C@@H](C)O2)ccc1=O [Example 175, 5-[(2S,6R)-4-[7-(2,4-difluorophenyl)-2-(dimethylamino)thiazolo[4,5-d]pyrimidin-5-yl]-6-methyl-morpholin-2-yl]-1-(methylamino)pyridin-2-one]",< 100 nM
